Assay results reported in PubChem BioAssay AID198 (DTP/NCI, 2004).
Inconclusive results and toxic doses are left out. How the source made its calls: active means survival T/C of 150% or more; inactive means T/C below 125% in these data.

Test system: B16 melanoma ip, C57BL/6 mice, median survival T/C
Experiment: NCI In Vivo Anticancer Drug Screen. Data for tumor model B16 Melanoma (intraperitoneal) in C57BL/6 mice
Conditions: endpoint: median survival time, schedule: Q01DX009 (ip), vehicle: saline, higher = longer survival
Experimental: The antitumor activity of compounds was measured in mice bearing transplantable tumors. Survival or tumor size were measured and the results are expressed as the measurement made in the treated group (T) divided by the measurement made in the vehicle treated control group (C). The tumor model used in this assay is B16 Melanoma (intraperitoneal) in C57BL/6 mice

Measured: T/C

Nc1ncnc2c1ccn2C1OC(CO)C(O)C1O (stereo not drawn)
inactive: dose: 0.32 mg/kg/injection 93 % of control | dose: 0.63 mg/kg/injection 96 % of control | dose: 1.25 mg/kg/injection 100 % of control
